Measured values reported in patent publication US20240091138A1, “TOPICAL C[…]” (EGIS GYÓGYSZERGYÁR ZRT., priority 2021, published 2024).

What was measured:
Wistar rats = test: Chronic constriction injury (CCI) rat model of neuropathy, paw withdrawal threshold with electronic von Frey; type: in vivo; details: 16.66 mg/kg
Source text: Furthermore, based on the article Bennett G J, at al (Pain, A peripheral mononeuropathy in rat that produces disorders of pain sensation like those seen in man. 1988 April; 33(1):87-107) we have developed a method for the examination of the compositions of the present invention. Thus, we have examined the compositions according to the present invention also with a different model for measuring the alleviation of the peripheral neuropathic pain also. Namely, we have carried out examinations on rats using Chronic constriction injury (CCI) model. Three weeks following nerve injury rats were assessed for hind paw mechanical withdrawal thresholds. The paw withdrawal threshold (PWT) was determined with an Electronic von Frey device according to the modified up-down method of Dixon (Efficient analysis of experimental observations, Annu Rev Pharmacol Toxicol. 1980; 20:441-62). […] The method and results are shown in example 3 and on FIG. 9.
Thus, the compositions of the present invention are effective in the treatment of neuropathic pain. […]
Briefly, under isoflurane anesthesia small blunt dissection was made into the skin of rat right thigh then three loosely constrictive ligatures were placed around common sciatic nerve (chronic constriction injury CCI). Three weeks following nerve injury rats were assessed for hind paw mechanical withdrawal thresholds. […]

Solubility of pregabalin = details: in any solvents
[1] = Pharmacokinetic studies (blood levels of pregabalin); details: during topical treatment

SMILES: CC(C)C[C@H](CN)CC(=O)O [pregabalin]
- reduction of hypersensitivity after oral administration (Wistar rats): not able to reduce hypersensitivity
- Solubility (Solubility of pregabalin): poor
- amount of pregabalin entering the bloodstream [1]: very small amounts
